These results are taken from patent US10254283B2, “Biomarker for MELK activity and methods of using same” (Dana-Farber Cancer Institute, Inc., priority 2013, dated 2019).

“Also recorded” adds a separate entry of the source.

Experiment [1] deals with T1, recombinant MELK (kinase domain) (Homo sapiens, UniProt Q14680).
T1 construct: incubated without or with recombinant MELK (kinase domain) for 30 min. at 30° C
As to the kind of experiment: In vitro kinase assay, recombinant MELK (kinase domain) with recombinant Histone H3, immunoblotting. In kind it is biochemical. The note with it: 200 ng/ml final, 30 min at 30° C. (FIG. 12). For orientation: Immunoblotting shows a protein as a band on a membrane.
Experimental: Reactions were terminated by adding SDS sample buffer. Samples were subjected to immunoblotting using the indicated antibodies.
Flag-tagged eIF4B or Flag-eIF4B (S406A) was transfected into HEK293T cells (4 μg DNA for cells in one 60 mm dish). Thirty-six hours after transfection, cells were lysed with IP buffer (100 mM NaCl, 50 mM Tris, pH 7.5, 0.5% NP-40, 0.5% Sodium deoxycholate, supplemented with protease/phosphatase inhibitor cocktail). Lysates were cleared via incubating with anti-mouse IgG conjugated to magnetic beads (4° C., 30 min), and then immunoprecipitated with anti-Flag M2 magnetic beads (Sigma) (4° C., 120 min). The beads with bound antigens were washed 5 times with IP buffer. Beads during the last wash were aliquoted into 1.5 ml microcentrifuge tubes. After removal of IP buffer, the beads were washed once with 1× kinase buffer without ATP (5 mM Tris, pH 7.5, 5 mM-βglycerophosphate, 2 mM dithiothreitol, 0.1 mM Na3VO4, 10 mM MgCl2; Cell Signaling). After the wash, 40 μl 1× kinase buffer with 200 mM ATP was added to each tube, followed by 5 ul buffer without or with 500 ng recombinant MELK. The reaction was incubated at 30° C. for 30 min, and terminated by adding 40 ul 2×SDS sample buffer. The samples were then boiled and subjected to immunoblotting. […]

In experiment [2] the test system is phosphorylation of eIF4B at S406. Nature of the experiment: Immunoblotting of eIF4B S406 phosphorylation in drug-treated mitotic cells. In kind it is cell-based, human. How it is done: MDA-MB-468 cells stably expressing tetracycline-inducible (tet-on) small hairpin MELK (shMELK) in the presence or absence of doxycycline were harvested through treatment of nocodazole, and subjected to immunoblotting. […] Mitotic MDA-MB-468 cells were treated for 30 min with vehicle or 200 nM OTSSP167, a MELK inhibitor (Chung et al. (2012) Oncotarget 3:1629-1640). Lysates were used for immunoblotting.
(§1) For treatment with nocodazole, cells were refreshed with medium containing nocodazole (200 ng/ml). Twenty hours after treatment, floating mitotic cells were harvested by gental shake-off. For drug treatment, cells were seeded in multi-well plate, in the presence of OTSSP167 (ChemExpress, HY15512; 10 mM stock made in DMSO).
(§2) Cells were harvested and lysed with RIPA buffer (25 mM Tris, pH 7.4, 150 mM NaCl, 1% Nonidet P-40, 0.5% sodium deoxycholate, and 0.1% sodium dodecyl sulfate) supplemented with protease inhibitors cocktail (Roche) and phosphatase inhibitors cocktail (Thermo Scientific). Cleared lysates were analyzed for protein concentration using a BCA kit (Thermo Scientific). Equal amount of protein (10-20 μg) was resolved on SDS-PAGE, and was subsequently transferred onto a nitrocellulose or polyvinylidene difluoride membrane (Amersham). The membrane was blocked with 5% non-fat milk and was then incubated with primary antibodies overnight at 4° C. After washing, the membrane was incubated with fluorophore-conjugated secondary antibodies for 1 h at room temperature. The membrane was then washed and scanned with an Odyssey® Infrared scanner (Li-Cor Biosciences).
The following antibodies were used for immunoblotting or immunoprecipitation, MELK (Epitomics, 2916), p-eIF4B (S406) (Cell Signaling, 8151), p-eIF4B (S422) (Cell Signaling, 3591), eIF4B (Cell Signaling, 3592), c-Myc (Cell Signaling, 5605), XIAP (Cell Signaling, 2045), p-Akt (S473) (Cell Signaling, 4060), p-MAPK (T202/Y204) (Cell Signaling, 4370), cleaved PARP (Asp214) (Cell Signaling, 9541), Aurora A (Cell Signaling, 4718), Aurora B (Cell Signaling, 3094), p-Aurora A (T288)/Aurora B (T232)/Aurora C (T198) (Cell Signaling, 2914), p-Histone H3 (T3) (Cell Signaling, 13576), p-Histone H3 (S10) (Cell Signaling, 3377), p-Histone H3 (T11) (Cell Signaling, 9767), p-Histone H3 (S28) (Cell Signaling, 9713), ODC (Sigma, O1136), Vinculin (Sigma, V9131, alpha-tubulin (Sigma, T9016), anti-HA magnetic beads (Pierce, 88836), anti-Flag magnetic beads (Sigma, M8823). Secondary antibodies used were Alexa Fluor 680 goat anti-rabbit IgG (Invitrogen A-21109) and IRDye800-conjugated anti-mouse IgG (Rockland).

Experiment [3] deals with mitotic phosphorylation of Histone H3. As to the kind of experiment: Immunoblotting of mitotic Histone H3 phosphorylation in drug-treated cells. In kind it is cell-based, human. On the procedure: Mitotic cells were harvested through nocodazole-induced cell cycle arrest at prometaphase (200 ng/ml nocodazole, 20 hours). Cells were treated with the small chemical inhibitor of MELK, OTSSP167, for 30 min, at the indicated concentrations. Cell lysates were then prepared for immunoblotting.
as §1
as §2, with “The membrane was then washed and scanned with an Odyssey® Infrared scanner (Li-Cor Biosciences).” left out

Setting [4] is: mitotic cells treated for 30 min, mTOR inhibitors versus MELK inhibitor (FIG. 6).

T1 sequence (Q14680 11-263 limits assumed): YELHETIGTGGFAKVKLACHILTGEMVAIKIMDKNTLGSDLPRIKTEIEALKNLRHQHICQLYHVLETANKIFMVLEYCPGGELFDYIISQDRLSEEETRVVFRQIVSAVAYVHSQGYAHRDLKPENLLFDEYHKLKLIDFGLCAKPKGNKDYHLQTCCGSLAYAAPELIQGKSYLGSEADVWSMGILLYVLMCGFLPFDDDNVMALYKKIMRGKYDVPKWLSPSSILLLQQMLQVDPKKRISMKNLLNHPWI

With `CC(=O)c1cnc2ccc(-c3cc(Cl)c(O)c(Cl)c3)nc2c1N[C@H]1CC[C@H](CN(C)C)CC1` [OTSSP167], the “MELK-induced phosphorylation of Histone H3 at Ser 10 in vitro” value in experiment [1] is on record as “suppresses MELK-induced phosphorylation of Histone H3 at Ser 10”. Besides, the “phosphorylation of eIF4B at S406” value in experiment [2] (mitotic MDA-MB-468 cells, 200 nM, 30 min, vs vehicle (FIG. 5 right panels)) is given as “impairs the phosphorylation of eIF4B at S406”; in experiment [2] (setting [4]), “suppressed the phosphorylation of eIF4B at S406”. The “phosphorylation of Histone H3 at Thr3/Ser10/Thr11” value in experiment [3] (MDA-MB-468 cells (text cites FIG. 12)) was “reduced phosphorylation of Histone H3 at Thr3/Ser10/Thr11”. For the same compound, in experiment [3] (nocodazole-arrested mitotic cells, 30 min, indicated concentrations (FIG. 13)), the “mitotic phosphorylation of Histone H3 at Thr-3, Ser-10 and Thr-11” value was “concentration-dependent reduction; also recorded: suppresses the mitotic phosphorylation of Histone H3 at Thr-3, Ser-10 and Thr-11”.

Consider `CCC(=O)N1CCN(c2ccc(-n3c(=O)ccc4cnc5ccc(-c6cnc7ccccc7c6)cc5c43)cc2C(F)(F)F)CC1` [Torin 1], for which the “phosphorylation of eIF4B at S406” value in experiment [2] (setting [4]) was “not mTOR inhibition”; in experiment [2] (mitotic cells treated for 30 min, mTOR inhibitors versus MELK inhibitor (FIG. 6), listed as torins) it was “do not produce the same results”.
